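Protocol summary: plate cells (96-well), add compound at 5 concentrations, incubate 48 h, interpolate endpoints linearly. GI50 = concentration required for 50% inhibition of growth.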 The source made the active and inactive calls. No stated cut-off is given here; in the data, active = GI50 up to about 1.1 µM and inactive = higher.
What was measured:
Experiment in all cases: growth of human tumour cells (NCI), 48 h
UO-31 = tested on: UO-31
K562 = tested on: K562
HCT-15 = tested on: HCT-15
BT-549 = tested on: BT-549
NCI-H460 = tested on: NCI-H460
CCRF-CEM = tested on: CCRF-CEM
CAKI-1 = tested on: CAKI-1
SK-MEL-2 = tested on: SK-MEL-2
NCI-H226 = tested on: NCI-H226
MOLT-4 = tested on: MOLT-4
M14 = tested on: M14
HCT-116 = tested on: HCT-116
HCC 2998 = tested on: HCC 2998
HOP-18 = tested on: HOP-18
NCI-H23 = tested on: NCI-H23
SW-620 = tested on: SW-620
HT-29 = tested on: HT-29
UACC-62 = tested on: UACC-62
IGROV-1 = tested on: IGROV-1
KM-20L2 = tested on: KM-20L2

SMILES: CS(=O)(=O)OCCN(CCOS(C)(=O)=O)c1ccc(/C=N/c2ccc(-c3csc(COc4ccccc4)n3)cc2)cc1
- GI50 (UO-31): 0.65 µM (active)
- GI50 (K562): 5.02 µM (inactive)
- GI50 (HCT-15): 8.51 µM
- GI50 (BT-549): 10.7 µM (inactive)
- GI50 (NCI-H460): 0.0708 µM (active)
- GI50 (CCRF-CEM): 0.587 µM (active)
- GI50 (CAKI-1): 0.853 µM (active)
- GI50 (SK-MEL-2): 15.7 µM (inactive)
- GI50 (NCI-H226): 2.66 µM (inactive)
- GI50 (MOLT-4): 0.271 µM (active)
- GI50 (M14): 5.6 µM (inactive)
- GI50 (HCT-116): 12.6 µM (inactive)
- GI50 (HCC 2998): 2.26 µM (inactive)
- GI50 (HOP-18): 5.25 µM (inactive)
- GI50 (NCI-H23): 2.21 µM (inactive)
- GI50 (SW-620): 8.09 µM (inactive)
- GI50 (HT-29): 4.31 µM (inactive)
- GI50 (UACC-62): 1.87 µM (inactive)
- GI50 (IGROV-1): 12.6 µM (inactive)
- GI50 (KM-20L2): 3.14 µM (inactive)

SMILES: C/C=C1/C(=Cc2[nH]c(C=c3[nH]/c(=C/C4=NC(=O)C(CC)=C4C)c(C)c3CCC(=O)O)c(CCC(=O)O)c2C)NC(=O)C1C (stereo not given)
- GI50 (UO-31): 8.24 µM (inactive)
- GI50 (K562): 2.21 µM (inactive)
- GI50 (HCT-15): 2.58 µM
- GI50 (NCI-H460): 13 µM (inactive)
- GI50 (CCRF-CEM): 2.1 µM (inactive)
- GI50 (CAKI-1): 16.4 µM (inactive)
- GI50 (SK-MEL-2): 9.08 µM (inactive)
- GI50 (NCI-H226): 2.59 µM (inactive)
- GI50 (MOLT-4): 1.95 µM (inactive)
- GI50 (M14): 1.87 µM (inactive)
- GI50 (HCT-116): 2.13 µM (inactive)
- GI50 (HCC 2998): 11.4 µM (inactive)
- GI50 (HOP-18): 30.2 µM (inactive)
- GI50 (NCI-H23): 21.5 µM (inactive)
- GI50 (SW-620): 2.96 µM (inactive)
- GI50 (HT-29): 5.11 µM (inactive)
- GI50 (UACC-62): 8 µM (inactive)
- GI50 (IGROV-1): 3.38 µM (inactive)
- GI50 (KM-20L2): 2.03 µM (inactive)

SMILES: c1c(N2CCOCC2)s[s+]c1N1CCOCC1
- GI50 (UO-31): > 100 µM (inactive)
- GI50 (K562): > 100 µM (inactive)
- GI50 (HCT-15): > 100 µM
- GI50 (NCI-H460): > 100 µM (inactive)
- GI50 (CCRF-CEM): > 100 µM (inactive)
- GI50 (CAKI-1): > 100 µM (inactive)
- GI50 (SK-MEL-2): 7.06 µM (inactive)
- GI50 (NCI-H226): 13.3 µM (inactive)
- GI50 (MOLT-4): > 100 µM (inactive)
- GI50 (M14): > 100 µM (inactive)
- GI50 (HCT-116): > 100 µM (inactive)
- GI50 (HCC 2998): > 100 µM (inactive)
- GI50 (HOP-18): > 100 µM (inactive)
- GI50 (NCI-H23): > 100 µM (inactive)
- GI50 (SW-620): > 100 µM (inactive)
- GI50 (HT-29): > 100 µM (inactive)
- GI50 (UACC-62): > 100 µM (inactive)
- GI50 (IGROV-1): > 100 µM (inactive)
- GI50 (KM-20L2): > 100 µM (inactive)

SMILES: COC(=O)C1=C(C(=O)OC)SC(=C(/N=N/c2ccccc2)c2ccccc2)S1
- GI50 (UO-31): > 100 µM (inactive)
- GI50 (K562): > 100 µM (inactive)
- GI50 (HCT-15): > 100 µM
- GI50 (NCI-H460): > 100 µM (inactive)
- GI50 (CCRF-CEM): > 100 µM (inactive)
- GI50 (CAKI-1): > 100 µM (inactive)
- GI50 (SK-MEL-2): > 100 µM (inactive)
- GI50 (NCI-H226): > 100 µM (inactive)
- GI50 (MOLT-4): > 100 µM (inactive)
- GI50 (M14): 45.8 µM (inactive)
- GI50 (HCT-116): > 100 µM (inactive)
- GI50 (HCC 2998): > 100 µM (inactive)
- GI50 (HOP-18): > 100 µM (inactive)
- GI50 (NCI-H23): > 100 µM (inactive)
- GI50 (SW-620): > 100 µM (inactive)
- GI50 (HT-29): > 100 µM (inactive)
- GI50 (UACC-62): > 100 µM (inactive)
- GI50 (IGROV-1): > 100 µM (inactive)
- GI50 (KM-20L2): > 100 µM (inactive)

SMILES: CC1(C)OC(C(N)=O)=C(C(N)=O)O1
- GI50 (UO-31): > 100 µM (inactive)
- GI50 (K562): > 100 µM (inactive)
- GI50 (HCT-15): > 100 µM
- GI50 (NCI-H460): > 100 µM (inactive)
- GI50 (CCRF-CEM): > 100 µM (inactive)
- GI50 (CAKI-1): > 100 µM (inactive)
- GI50 (SK-MEL-2): > 100 µM (inactive)
- GI50 (NCI-H226): > 100 µM (inactive)
- GI50 (MOLT-4): > 100 µM (inactive)
- GI50 (M14): > 100 µM (inactive)
- GI50 (HCT-116): > 100 µM (inactive)
- GI50 (HCC 2998): > 100 µM (inactive)
- GI50 (HOP-18): > 100 µM (inactive)
- GI50 (NCI-H23): > 100 µM (inactive)
- GI50 (SW-620): > 100 µM (inactive)
- GI50 (HT-29): > 100 µM (inactive)
- GI50 (UACC-62): > 100 µM (inactive)
- GI50 (IGROV-1): > 100 µM (inactive)
- GI50 (KM-20L2): > 100 µM (inactive)

SMILES: O=C1c2cccc3c2C(=O)c2c(cccc21)OCCOCCOCCOCCO3
- GI50 (UO-31): 30.9 µM (inactive)
- GI50 (K562): 61.4 µM (inactive)
- GI50 (HCT-15): > 100 µM
- GI50 (NCI-H460): 78.3 µM (inactive)
- GI50 (CCRF-CEM): 47.2 µM (inactive)
- GI50 (CAKI-1): 96.4 µM (inactive)
- GI50 (SK-MEL-2): > 100 µM (inactive)
- GI50 (NCI-H226): 34.2 µM (inactive)
- GI50 (MOLT-4): 31.5 µM (inactive)
- GI50 (M14): > 100 µM (inactive)
- GI50 (HCT-116): > 100 µM (inactive)
- GI50 (HCC 2998): > 100 µM (inactive)
- GI50 (HOP-18): > 100 µM (inactive)
- GI50 (NCI-H23): > 100 µM (inactive)
- GI50 (SW-620): > 100 µM (inactive)
- GI50 (HT-29): > 100 µM (inactive)
- GI50 (UACC-62): > 100 µM (inactive)
- GI50 (IGROV-1): > 100 µM (inactive)
- GI50 (KM-20L2): > 100 µM (inactive)
